The numbers were not newly measured in the CATMoS acute toxicity set (Mansouri et al. 2021), which cites them from elsewhere.

Each structure is given as a SMILES string. “And” between values parts separate entries of the source, which are not always exact repeats. Equal values may be shown once.

As a reminder, the LD50 is the dose at which mortality reaches 50%.

The data set in a line: rat acute oral toxicity. As to conditions: in vivo.
With `COc1ccccc1N1CCN(CCCOc2ccc(N)cc2)CC1`, the LD50 is 416 mg/kg.

With `CNC(=O)ON=C1SCCOC1(C)C`, the LD50 is 0.6 mg/kg.

Take `Cc1nccnc1SCc1ccco1`: the LD50 is 1000 mg/kg.

As for `CS(=O)(=O)c1ccc(-c2cn3ccccc3n2)cc1`, the LD50 was 3710 mg/kg.

As to `CCN(CCN(C)C)c1ccccc1`, the LD50 is 1150 mg/kg.

With `CCCOC(=O)CC`, the LD50 was 10300 mg/kg.

`Cc1cccc(C)c1CCNC(N)=O`: the LD50 was 1500 mg/kg.

`OCCNCC(O)CNCCO`: the 50% lethal dose (LD50) is 7200 mg/kg.

In the case of `CC(CN1CCN(CCOCCO)CC1)CN1c2ccccc2Sc2ccc(Cl)cc21` (stereo not drawn), the LD50 was 400 mg/kg.

For `CC(=O)Oc1cc(C(C)C)c(OCCN(C)C)cc1C`, the LD50 is 740 mg/kg.

With `CN(CCc1ccccc1)N=O`, the LD50 was 48 mg/kg.

Take `O=[N+]([O-])c1ccc(C=Cc2ccc([N+](=O)[O-])cc2S(=O)(=O)O)c(S(=O)(=O)O)c1`: the LD50 was 12600 mg/kg.

As to `O=c1oc2ccccc2c(O)c1C(CC(O)c1ccc(-c2ccc(Br)cc2)cc1)c1ccccc1` (stereo not drawn), the LD50 is 0.49 mg/kg.

Regarding `Cc1ccc(-c2ccccc2)cc1`, the LD50 is 2570 mg/kg.

Turning to `CCCS(=O)(=O)c1c(Cl)cnc(Cl)c1Cl`, the LD50 was 1100 mg/kg.

Turning to `Cc1ccc(C(C)(C)C)cc1`, the LD50 was 1560 mg/kg.

In the case of `Cc1nn(C)c2c1NCc1ccccc1O2`, the median lethal dose (LD50) was 1360 mg/kg.

For the compound `O=[N+]([O-])c1nccs1`, the LD50 was 137 mg/kg.

Regarding `CCCCC(CC)COC(N)=O` (stereo not drawn), the LD50 was 3150 mg/kg.

For `CC(=O)C=CC1=C(C)CCCC1(C)C`, the LD50 was 4590 mg/kg.

As to `C[Si]1(C)N[Si](C)(C)N[Si](C)(C)N[Si](C)(C)N1`, the LD50 is 100 mg/kg.

For `CN(C)CCC=C(c1ccccc1)c1ccc(C(F)(F)F)cc1`, the LD50 was 1000 mg/kg.

On to `CCC(CC)c1cccc(OC(=O)NC)c1`, for which the LD50 is 87 mg/kg.

Turning to `C=CCOC(=O)CC(SP(=S)(OC)OC)C(=O)OCC(C)SP(=S)(OC)OC` (stereo not drawn), the LD50 is 762 mg/kg.

In the case of `O=C1C(O)=C(CC=C(Cl)Cl)C(=O)c2ccccc21`, the LD50 was 281 mg/kg.

In the case of `CC[N+]1(C)CCCC(OC(=O)C(O)(c2ccccc2)c2ccccc2)C1` (stereo not drawn), the LD50 was 916 mg/kg and 850 mg/kg.

Regarding `CCCCOCCCC`, the LD50 is 7400 mg/kg.

Consider `O=C(Nc1cc(Cl)ccc1Cl)c1cc(Cl)cc(-c2ccccc2)c1O`, for which the LD50 is 6310 mg/kg.

On to `C=C(O)C(=O)O`, for which the LD50 is 10000 mg/kg.

Turning to `OCCC(O)Cl` (stereo not drawn), the LD50 was 110 mg/kg.

On to `CCCOP(=S)(OC)SCN1C(=O)c2ccccc2C1=O` (stereo not drawn), for which the LD50 was 90 mg/kg.

Take `O=C(O)c1cc(C(=O)O)cc(S(=O)(=O)O)c1`: the LD50 was 2600 mg/kg and 6450 mg/kg.

Regarding `Cc1c(Cc2cc(C(C)(C)C)c(O)c(C(C)(C)C)c2)c(C)c(Cc2cc(C(C)(C)C)c(O)c(C(C)(C)C)c2)c(C)c1Cc1cc(C(C)(C)C)c(O)c(C(C)(C)C)c1`, the LD50 was 1500 mg/kg.

For the compound `CCCSP(=O)(OCC)Oc1ccccc1` (stereo not drawn), the LD50 was 295 mg/kg.

Turning to `C=COP(=O)(OCC)OC(CCl)c1cc(Cl)c(Cl)cc1Cl` (stereo not drawn), the median lethal dose (LD50) is 1100 mg/kg.

As to `CCOP(=S)(OC(C)C)Sc1nc(C)cc(C)n1` (stereo not drawn), the LD50 is 68 mg/kg.

As to `CCCCC(CC)COC(CBr)c1cccc(C2CCCCC2)c1` (stereo not drawn), the LD50 is 250 mg/kg.

Consider `O=C(CF)Nc1ccc(F)cc1`, for which the LD50 was 2 mg/kg.

Turning to `CC(C)N(N=O)C(C)C`, the LD50 was 850 mg/kg.

For the compound `CCC(C)C1(CC)C(O)=NC(=O)N=C1O` (stereo not drawn), the LD50 is 78 mg/kg.

As to `O=C(O)c1cc(-n2c(-c3ccccc3)cc3c2CCc2ccccc2-3)ccc1O`, the LD50 is 450 mg/kg.

As for `CCCCCCCC(=O)Oc1c(I)cc(C#N)cc1I`, the LD50 was 190 mg/kg.

In the case of `CC(C)Nc1nc(NC(C)C)nc(N(C)C#N)n1`, the LD50 was 1700 mg/kg.

For the compound `O=C(O)c1ccc([N+](=O)[O-])cc1`, the LD50 is 1960 mg/kg.

`O=C(Nc1nc2ccc([N+](=O)[O-])cc2s1)c1ccc([N+](=O)[O-])cc1`: the LD50 is 1500 mg/kg.

`COc1ccc(CC2CNC(=O)N2)cc1OC1CCCC1` (stereo not drawn): the LD50 was 600 mg/kg.

Consider `CCC(C)(C)/N=C(\NC#N)Nc1cccnc1`, for which the LD50 is 14 mg/kg.

For `CN=c1oc2ccccc2n1C`, the LD50 was 1000 mg/kg.

As for `CCCCN1CCCC1C(=O)Nc1c(C)cc(C)cc1C` (stereo not drawn), the median lethal dose (LD50) was 14000 mg/kg.

On to `CSc1ccc2c(c1)N(CCCN(C)C)c1ccccc1S2`, for which the LD50 was 1450 mg/kg.

For `CCOP(=S)(OCC)Sc1nc(C)cc(C)n1`, the LD50 is 59 mg/kg.

As to `CCNc1nc(NC(C)C)nc(OC)n1`, the LD50 was 1460 mg/kg.

`C=CCOC1=NS(=O)(=O)c2ccccc21`: the LD50 was 2030 mg/kg.

With `CC(=O)Oc1ccc(-c2ccc(F)cc2)cc1C(=O)O`, the LD50 is 185 mg/kg.

Consider `CC(C)CCCCCOC(=O)CS`, for which the LD50 is 348 mg/kg.

As to `CCCSCSP(=S)(OCC)OCC`, the LD50 was 2.8 mg/kg.

Consider `CCCOc1c(Cl)c(Cl)c(Cl)c(Cl)c1Cl`, for which the LD50 is 430 mg/kg.

For the compound `COc1cc(C=CC(=O)N2CCN(CC(=O)N3CCCC3)CC2)cc(OC)c1OC`, the median lethal dose (LD50) was 1310 mg/kg.
